According to ChEMBL document CHEMBL1154574, “Cytonic acids A and B: novel tridepside inhibitors of hCMV protease from the endophytic fungus Cytonaema species” (J Nat Prod, 2000):

Test: Inhibition of human cytomegalovirus protease by scintillation proximity assay
Design: species or system Human betaherpesvirus 5

IC50 [µM]	Structure (SMILES)
43	CCCCCc1cc(O)cc(O)c1C(=O)Oc1cc(O)c(C(=O)Oc2cc(O)c(C(=O)O)c(CCC)c2)c(CCC)c1 [CYTONIC ACID A]
11	CCCCCc1cc(OC(=O)c2c(O)cc(OC(=O)c3c(O)cc(O)cc3CCC)cc2CCC)cc(O)c1C(=O)O [CYTONIC ACID B]
